Activity calls are given as the source filed them.
Key:
[1] = A Cell Based Secondary Assay To Explore Cytotoxicity of Compounds that Sensitize Mycobacterium Tuberculosis to Beta-Lactam Antibiotics.; assay type: functional
[2] = HEK-293T viability loss after treatment – luminescence, T-cell screen hits, cytotoxicity control for TCR NF-kB inhibitor project, dose response (AID 489026); assay type: functional, cell-based;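 note: cells exposed to compound about 14 hours before the viability readout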
cells = assay type: functional
[3] = tested on: Streptococcus sp. 'group A'; test: Streptococcus pyogenes SK(-)GAS viability under kanamycin – luminescence, BacTiterGlo, confirmation, counter-screen for streptokinase expression inhibitor project, dose response (AID 1900); assay type: functional, organism-based
[4] = THP-1 cell cytotoxicity, dose response, cytotoxicity control for non-replicating M. tuberculosis project (AID 489025); assay type: functional
[5] = Vero E6 cell cytotoxicity, dose response, cytotoxicity control for non-replicating M. tuberculosis project, secondary assay (AID 492998); assay type: functional, VeroE6; conditions: Vero C1008
Streptococcus = test: GAS UMAA2166 growth inhibition – luminescence, BacTiterGlo, counter-screen for streptokinase expression inhibitor project, dose response (AID 1915); assay type: functional, organism-based;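 note: potency for reduction of bacterial viability or growth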
BJ [6] = test: BJ-TERT fibroblast viability loss – cell-based, RAS-independent, luminescence, dose response (AID 1933); assay type: functional; conditions: Homo sapiens
BJ [7] = test: cells; assay type: functional, cell-based; conditions: Homo sapiens
[8] = DRD fibroblast viability loss – cell-based, non-viral oncogenic, luminescence, dose response (AID 1934); assay type: functional; conditions: Homo sapiens
BJ [9] = test: BJ-TERT-LT-ST fibroblast viability loss – cell-based, RAS-independent, luminescence, dose response (AID 1935); assay type: functional; conditions: Homo sapiens;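 note: BJ fibroblasts immortalized with TERT plus LT and ST oncogenes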
[10] = HEK-293T cell viability reduction – luminescence, B-cell screen hits, cytotoxicity control for BCR NF-kB inhibitor project, dose response (AID 489021); assay type: functional, cell-based;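 note: HEK-293T cells carrying an NF-kB luciferase reporter; cells exposed to compound for about 14 hours before viability readout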
Cytochrome P450 3A4 = Cytochrome P450 3A4 (Homo sapiens, UniProt P08684);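 note: CYP3A4 tested as one member of a cytochrome P450 panel screen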
Sequence of Cytochrome P450 3A4 (P08684 whole entry): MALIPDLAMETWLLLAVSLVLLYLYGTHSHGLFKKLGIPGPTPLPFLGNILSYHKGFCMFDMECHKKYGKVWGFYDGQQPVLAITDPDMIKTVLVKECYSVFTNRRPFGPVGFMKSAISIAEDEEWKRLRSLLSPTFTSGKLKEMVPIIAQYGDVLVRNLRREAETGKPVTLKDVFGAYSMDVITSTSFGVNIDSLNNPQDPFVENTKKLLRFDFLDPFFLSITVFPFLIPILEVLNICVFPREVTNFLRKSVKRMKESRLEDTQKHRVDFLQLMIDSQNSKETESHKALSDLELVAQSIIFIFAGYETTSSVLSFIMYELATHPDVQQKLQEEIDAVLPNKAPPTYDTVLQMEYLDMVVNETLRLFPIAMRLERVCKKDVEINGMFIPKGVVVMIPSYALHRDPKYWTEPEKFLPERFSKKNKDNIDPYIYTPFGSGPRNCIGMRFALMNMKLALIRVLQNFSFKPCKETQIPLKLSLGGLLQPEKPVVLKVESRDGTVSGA

Large T antigen = Large T antigen (Simian virus 40, UniProt P03070); assay type: functional, Betapolyomavirus macacae;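 note: Confirmatory-stage PubChem screen for compounds that inhibit SV40 T antigen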
Sequence of Large T antigen (P03070 whole entry): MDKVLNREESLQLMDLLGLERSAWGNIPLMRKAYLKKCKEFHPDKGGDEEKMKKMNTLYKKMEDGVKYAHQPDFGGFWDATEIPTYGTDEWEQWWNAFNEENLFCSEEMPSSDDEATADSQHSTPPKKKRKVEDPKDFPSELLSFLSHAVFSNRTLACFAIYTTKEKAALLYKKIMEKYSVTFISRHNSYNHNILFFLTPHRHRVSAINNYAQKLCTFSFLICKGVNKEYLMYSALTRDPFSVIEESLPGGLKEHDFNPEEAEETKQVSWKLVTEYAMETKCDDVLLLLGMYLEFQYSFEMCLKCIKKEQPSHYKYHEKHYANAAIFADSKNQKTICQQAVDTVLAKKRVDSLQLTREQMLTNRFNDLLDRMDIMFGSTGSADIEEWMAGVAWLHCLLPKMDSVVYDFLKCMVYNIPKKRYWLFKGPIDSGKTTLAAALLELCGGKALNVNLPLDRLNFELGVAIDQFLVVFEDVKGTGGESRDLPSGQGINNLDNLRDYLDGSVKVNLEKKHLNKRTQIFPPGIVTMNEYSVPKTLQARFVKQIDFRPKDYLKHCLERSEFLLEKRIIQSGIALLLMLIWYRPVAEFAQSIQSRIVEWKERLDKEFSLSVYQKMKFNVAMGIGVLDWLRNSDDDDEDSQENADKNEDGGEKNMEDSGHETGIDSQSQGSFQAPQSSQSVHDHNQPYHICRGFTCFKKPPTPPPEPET

Estrogen receptor beta = Estrogen receptor beta (Homo sapiens, UniProt Q92731);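 note: recombinant ER-beta bound to coactivator SRC1 peptide in presence of estradiol agonist; inhibitors block coactivator peptide binding and lower the FRET signal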
Sequence of Estrogen receptor beta (Q92731 whole entry): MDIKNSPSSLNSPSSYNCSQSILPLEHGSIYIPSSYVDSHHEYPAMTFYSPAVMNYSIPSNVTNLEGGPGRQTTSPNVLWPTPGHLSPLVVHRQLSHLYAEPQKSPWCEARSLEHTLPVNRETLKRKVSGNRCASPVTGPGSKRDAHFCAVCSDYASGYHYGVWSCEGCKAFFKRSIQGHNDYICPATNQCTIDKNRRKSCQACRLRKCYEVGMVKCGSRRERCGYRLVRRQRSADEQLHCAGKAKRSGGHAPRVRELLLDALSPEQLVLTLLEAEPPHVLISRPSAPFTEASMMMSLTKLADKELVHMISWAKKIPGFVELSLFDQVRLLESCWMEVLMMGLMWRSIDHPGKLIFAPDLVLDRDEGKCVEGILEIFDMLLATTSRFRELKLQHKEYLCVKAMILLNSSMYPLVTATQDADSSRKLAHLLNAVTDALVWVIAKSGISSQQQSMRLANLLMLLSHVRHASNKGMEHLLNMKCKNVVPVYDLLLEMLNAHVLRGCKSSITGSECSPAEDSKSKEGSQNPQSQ

Estrogen receptor = biological target: T1, Estrogen receptor (Homo sapiens, UniProt P03372);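 note: potency for inhibiting coactivator peptide recruitment to the receptor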
T1 sequence (P03372 whole entry): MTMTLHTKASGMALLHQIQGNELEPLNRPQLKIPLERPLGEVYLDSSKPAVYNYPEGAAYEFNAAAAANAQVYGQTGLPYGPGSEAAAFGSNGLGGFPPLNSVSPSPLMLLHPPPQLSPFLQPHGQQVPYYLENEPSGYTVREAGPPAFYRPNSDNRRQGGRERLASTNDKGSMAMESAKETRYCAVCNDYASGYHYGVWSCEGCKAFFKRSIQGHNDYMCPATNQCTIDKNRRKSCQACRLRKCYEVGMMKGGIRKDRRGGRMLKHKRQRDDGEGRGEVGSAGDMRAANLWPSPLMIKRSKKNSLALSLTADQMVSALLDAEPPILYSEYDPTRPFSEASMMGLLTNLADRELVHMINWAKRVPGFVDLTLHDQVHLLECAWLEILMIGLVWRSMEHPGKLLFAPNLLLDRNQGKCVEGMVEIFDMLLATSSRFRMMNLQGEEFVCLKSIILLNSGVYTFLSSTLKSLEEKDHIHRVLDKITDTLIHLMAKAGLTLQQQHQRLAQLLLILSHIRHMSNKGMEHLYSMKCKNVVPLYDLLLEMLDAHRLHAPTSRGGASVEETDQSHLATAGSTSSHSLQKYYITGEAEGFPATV

[11] = viability of PTEN-deleted HCT116 cells – cell-based, HCT116 PTEN knockout, dose response (AID 1047); assay type: functional;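 note: HCT116 colon tumor cells with PTEN knocked out; cells exposed to compound for 60 hours before readout; potency for loss of cell viability measured by luminescence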
[12] = viability of HCT116 lacking mutant beta-catenin – cell-based, human colon tumor, dose response (AID 1045); assay type: functional;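 note: HCT116 colon tumor cells with beta catenin knocked out; cells exposed to compound for 60 hours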

CCOC(=O)c1cc(-c2ccc(C)cc2)n(CCC(=O)N2CCN(c3ccccn3)CC2)c1C
CC50 [1]: > 40 µM (active)

COc1ccccc1CNS(=O)(=O)c1ccc(-c2cnc(C3CC3)o2)cc1
IC50 [2]: > 80 µM (inactive)

CC(C)(C)c1ccc(C(=O)Nc2nnc(C3=COCCO3)o2)cc1
IC50 (cells): 2.11 µM (active)
EC50 [3]: 0.429 µM (active)
CC50 [4]: 34.2 µM (active)
CC50 [5]: > 20 µM (active)
EC50 (Streptococcus): 9.1 µM (active)

COc1ccccc1CNS(=O)(=O)c1ccc(-c2cc(C)no2)cc1
EC50 (BJ [6]): 1.92 µM (active)
IC50 [2]: 79.8 µM (inactive)
EC50 (BJ [7]): 53.8 µM (inconclusive)
EC50 [8]: 1.34 µM (active)
EC50 (BJ [9]): 0.83 µM (active)

Cc1cc(C)cc(OCc2nnc(SCC(=O)c3ccccc3)o2)c1
IC50 [10]: > 80 µM (inactive)

Cn1c(S)nnc1CCNC(=O)c1ccccc1Cl
AC50 (Cytochrome P450 3A4): inconclusive

Oc1ccc(/C=N/c2ccc(N3CCOCC3)cc2)c(O)c1
IC50 (Large T antigen): 12.9 µM (active)
IC50 (Estrogen receptor beta): 14.4 µM (active)
IC50 (Estrogen receptor): 30.4 µM (not active)

COc1cc2c(=O)n(Cc3ccco3)c(=O)n(CC(=O)c3cccc(Br)c3)c2cc1OC
EC50 [11]: 9.13 µM (active)
CC50 [1]: 22.2 µM (active)
EC50 [12]: 9.71 µM (active)

COC(=O)c1cc2c(cn1)[nH]c1ccccc12 [BETA-CCM]
AC50 (Cytochrome P450 3A4): inconclusive

COc1cc2nc(N3CCN(C(=O)c4ccco4)CC3)nc(N)c2cc1OC [PRAZOSIN]
AC50 (Cytochrome P450 3A4): inconclusive
